The values below come from patent US7205315B2, “Bicyclic imino acid derivatives as inhibitors of matrix metalloproteinases” (Sanofi-Aventis Deutschland GmbH, priority 2003, dated 2007).

Type in all cases: biochemical
Common to all, as to settings: APMA-activated proenzyme, fluorescence 328/393 nm

The target in assay [1] is T1, catalytic domain of human collagenase-3 (MMP-13) (Homo sapiens, UniProt P45452).
T1 construct: enzyme activity of the catalytic domain of human collagenase-3 (MMP-13); purchased INVITEK, Berlin 30 100 803
Briefly: Enzyme activity of the catalytic domain of human collagenase-3 (MMP-13), fluorogenic substrate. As to the method: c) Determining the enzyme activity of the catalytic domain of human collagenase-3 (MMP-13).
Activation of the proenzyme:
2 parts by volume of proenzyme were incubated, at 37° C. for 1.5 hours, with 1 part by volume of APMA solution. The APMA solution was prepared from a 10 mmol/l solution of p-aminophenylmercuric acetate in 0.1 mmol/l NaOH by diluting the solution with 3 parts by volume of tris/HCl buffer, pH 7.5 (see below). The pH was adjusted to between 7.0 and 7.5 by adding 1 mmol/l HCl. After the enzyme had been activated, it was diluted with the tris/HCl buffer to a concentration of 1.67 μg/ml.
(§1) In order to measure the enzyme activity, 10 μl of enzyme solution were incubated for 15 minutes with 10 μl of a 3% (v/v) buffered solution of dimethyl sulfoxide (reaction 1). In order to measure the enzyme inhibitor activity, 10 μl of enzyme solution were incubated with 10 μl of a 3% (v/v) buffered solution of dimethyl sulfoxide which contained the enzyme inhibitor (reaction 2).
Both in the case of reaction 1 and in the case of reaction 2, the enzyme reaction was monitored by fluorescence spectroscopy (328 nm (extinction)/393 nm (emission)) after 10 μl of a 3% (v/v) aqueous solution of dimethyl sulfoxide which contained 0.075 mmol of the substrate/1 had been added.
(§2) The enzyme activity was presented as increase in extinction/minute.
The effect of the inhibitor was calculated as a percentage inhibition in accordance with the following formula: % inhibition=100−[(increase in extinction/minute in reaction 2)/(increase in extinction/minute in reaction 1)×100].
(§3) The IC50, that is the concentration of inhibitor which is required for 50% inhibition of the enzyme activity, was determined graphically by plotting the percentage inhibitions at different inhibitor concentrations.
The buffer solution contained 0.05% Brij (Sigma, Deisenhofen, Germany) and also 0.1 mol of tris/HCl/l, 0.1 mol of NaCl/l, 0.01 mol of CaCl2/l (pH=7.5). The enzyme solution contained 1.67 μg of the enzyme domain/ml. The substrate solution contained 0.075 mmol of the fluorogenic substrate (7-methoxycoumarin-4-yl)acetyl-Pro-Leu-Gly-Leu-3-(2′,4′-dinitrophenyl)-L-2,3-diaminopropionyl-Ala-Arg-NH2/1 (Bachem, Heidelberg, Germany).

Assay [2] addresses T2, catalytic domain of human gelatinase A (MMP-2) (Homo sapiens, UniProt P08253).
T2 construct: enzyme activity of the catalytic domain of human gelatinase A (MMP-2); purchased INVITEK, Berlin 30 100 602
The assay can be described thus: Enzyme activity of the catalytic domain of human gelatinase A (MMP-2), fluorogenic substrate. The protocol:
d) Determining the enzyme activity of the catalytic domain of human gelatinase A (MMP-2). […] Activation of the proenzyme:
2 parts by volume of proenzyme were incubated, at 37° C. for 0.5 hour, with 1 part by volume of APMA solution. The APMA solution was prepared from a 10 mmol/l solution of p-aminophenylmercuric acetate in 0.1 mmol/l NaOH by diluting it with 3 parts by volume of tris/HCl buffer, pH 7.5 (see below). The pH was adjusted to between 7.0 and 7.5 by adding 1 mmol/l HCl. After the enzyme had been activated, it was diluted with the tris/HCl buffer to a concentration of 0.83 μg/ml.
as §1
Both in the case of reaction 1 and in the case of reaction 2, the enzyme reaction was monitored by fluorescence spectroscopy (328 nm (extinction)/393 nm (emission)) after 10 μl of a 3% (v/v) aqueous solution of dimethyl sulfoxide which contained 0.3 mmol of the substrate/1 had been added.
as §2
The effect of the inhibitor was calculated as percentage inhibition in accordance with the following formula: % inhibition=100−[(increase in extinction/minute in reaction 2)/(increase in extinction/minute in reaction 1)×100].
as §3
The buffer solution contained 0.05% Brij (Sigma, Deisenhofen, Germany) and also 0.1 mol of tris/HCl/l, 0.1 mol of NaCl/l, 0.01 mol of CaCl2/l (pH=7.5). The enzyme solution contained 0.83 μg of the enzyme domain/ml. The substrate solution contained 0.3 mmol of the fluorogenic substrate (7-methoxycoumarin-4-yl)acetyl-Pro-Leu-Gly-Leu-3-(2′,4′-dinitrophenyl)-L-2,3-diaminopropionyl-Ala-Arg-NH2/l (Bachem, Heidelberg, Germany).

In assay [3] the target is T3, catalytic domain of human gelatinase B (MMP-9) (Homo sapiens, UniProt P14780).
T3 construct: enzyme activity of the catalytic domain of human gelatinase B (MMP-9); purchased Roche, Mannheim 1 758 896
T3 sequence (P14780 107-707 limits assumed): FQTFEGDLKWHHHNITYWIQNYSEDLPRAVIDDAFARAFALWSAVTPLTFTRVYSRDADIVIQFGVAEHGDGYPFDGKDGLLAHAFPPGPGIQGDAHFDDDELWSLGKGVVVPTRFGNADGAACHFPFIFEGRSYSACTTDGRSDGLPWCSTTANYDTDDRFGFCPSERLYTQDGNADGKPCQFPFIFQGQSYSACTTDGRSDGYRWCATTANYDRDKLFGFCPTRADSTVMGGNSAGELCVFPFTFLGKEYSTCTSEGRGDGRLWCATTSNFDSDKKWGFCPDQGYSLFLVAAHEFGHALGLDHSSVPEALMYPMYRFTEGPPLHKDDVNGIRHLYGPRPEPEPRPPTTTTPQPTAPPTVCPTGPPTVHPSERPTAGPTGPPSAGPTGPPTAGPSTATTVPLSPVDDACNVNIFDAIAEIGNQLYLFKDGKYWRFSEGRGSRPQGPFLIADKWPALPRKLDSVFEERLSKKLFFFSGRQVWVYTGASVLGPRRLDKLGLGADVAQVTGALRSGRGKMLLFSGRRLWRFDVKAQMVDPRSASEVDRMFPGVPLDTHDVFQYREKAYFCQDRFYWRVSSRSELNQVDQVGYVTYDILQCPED
The assay can be described thus: Enzyme activity of the catalytic domain of human gelatinase B (MMP-9), fluorogenic substrate. As to the method:
e) Determining the enzyme activity of the catalytic domain of human gelatinase B (MMP-9). […] Activation of the proenzyme:
2 parts by volume of proenzyme were incubated, at 37° C. for 4 hours, with 1 part by volume of APMA solution. The APMA solution was prepared from a 10 mmol/l solution of p-aminophenylmercuric acetate in 0.1 mmol/l NaOH by diluting it with 3 parts by volume of tris/HCl buffer, pH 7.5 (see below). The pH was adjusted to between 7.0 and 7.5 by adding 1 mmol/l HCl. After the enzyme had been activated, it was diluted with the tris/HCl buffer to a concentration of 4.2 mU/ml.
In order to measure the activity of the enzyme, 10 μl of enzyme solution were incubated for 15 minutes with 10 μl of a 3% (v/v) buffered solution of dimethyl sulfoxide (reaction 1). In order to measure the enzyme inhibitor activity, 10 μl of enzyme solution were incubated with 10 μl of a 3% (v/v) buffered solution of dimethyl sulfoxide which contained the enzyme inhibitor (reaction 2). Both in the case of reaction 1 and in the case of reaction 2, the enzyme reaction was monitored by fluorescence spectroscopy (328 nm (extinction)/393 nm (emission)) after 10 ul of a 3% (v/v) aqueous solution of dimethyl sulfoxide, which contained 0.15 mmol of the substrate/l, had been added.
as §2
The inhibitory effect was calculated as percentage inhibition in accordance with the following formula: % inhibition=100−[(increase in extinction/minute in reaction 2)/(increase in extinction/minute in reaction 1)×100].
as §3
The buffer solution contained 0.05% Brij (Sigma, Deisenhofen, Germany) and also 0.1 mol of tris/HCl/l, 0.1 mol of NaCl/l, 0.01 mol of CaCl2/l (pH=7.5). The enzyme solution contained 4.2 mU of the enzyme domain/ml. The substrate solution contained 0.15 mmol of the fluorogenic substrate (7-methoxycoumarin-4-yl)acetyl-Pro-Leu-Gly-Leu-3-(2′,4′-dinitrophenyl)-L-2,3-diaminopropionyl-Ala-Arg-NH2/ (Bachem, Heidelberg, Germany).

Structures are written as SMILES. Where a name gives a salt, the structure may show the parent alone.

T2 sequence (P08253 110-465 limits assumed): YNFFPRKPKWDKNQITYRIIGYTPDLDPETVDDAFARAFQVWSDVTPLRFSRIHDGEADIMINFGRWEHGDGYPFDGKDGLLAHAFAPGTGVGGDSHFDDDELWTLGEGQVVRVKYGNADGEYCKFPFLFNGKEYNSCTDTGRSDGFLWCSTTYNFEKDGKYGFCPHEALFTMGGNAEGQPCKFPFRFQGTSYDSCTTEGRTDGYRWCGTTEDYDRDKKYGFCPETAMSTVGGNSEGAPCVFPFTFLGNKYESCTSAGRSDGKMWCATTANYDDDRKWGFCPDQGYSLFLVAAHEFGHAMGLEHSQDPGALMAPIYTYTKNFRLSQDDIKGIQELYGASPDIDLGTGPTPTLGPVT

For the compound `O=C(NO)[C@H]1[C@H]2CCCC[C@H]2CCN1S(=O)(=O)c1ccc(-c2ccc(Cl)cc2)cc1` (single isomer, unassigned) [Example 14, 2-(4′-chlorobiphenyl-4-sulfonyl)decahydroisoquinoline-1-(N-hydroxy)-carboxamide], the values for the IC50 in assay [1], in assay [2] and in assay [3] were 2 nM, 2 nM and 3.5 nM, respectively.
As for `O=C(NO)[C@@H]1[C@@H]2CCCC[C@@H]2CCN1S(=O)(=O)c1ccc(-c2ccc(Cl)cc2)cc1` (single isomer, unassigned) [Example 15, 2-(4′-chlorobiphenyl-4-sulfonyl)decahydroisoquinoline-1-(N-hydroxy)-carboxamide], the 50% inhibitory concentration (IC50) in assay [1] was 2300 nM; in assay [2], 2300 nM; in assay [3] it was 4000 nM.
For the compound `O=C(NO)C1C2CCCCC2CCN1S(=O)(=O)c1ccc(-c2ccc(Cl)cc2)cc1` (stereo not drawn) [Example 3, 2-(4′-chlorobiphenyl-4-sulfonyl)decahydroisoquinoline-1-(N-hydroxy)-carboxamide], the IC50 worked out at 3 nM in assay [1], 30 nM in assay [2] and 100 nM in assay [3].
The matching figures for `O=C(NO)C1C2CCCCC2CCN1S(=O)(=O)c1ccc(Oc2ccccc2)nc1` (stereo not drawn) [Example 5, 2-(6-phenoxypyridine-3-sulfonyl)decahydroisoquinoline-1-(N-hydroxy)-carboxamide trifluoroacetate]: 1.8 nM, 2 nM and 1.2 nM.
As for `O=C(NO)C1C2CCCCC2CCN1S(=O)(=O)CCc1ccc(-c2ccc(Cl)cc2)cc1` (stereo not drawn) [Example 7, 2-[2-(4′-chlorobiphenyl-4-yl)ethanesulfonyl]decahydroisoquinoline-1-(N-hydroxy)carboxamide], the 50% inhibitory concentration (IC50) amounted to 7 nM in assay [1], 4 nM in assay [2] and 3 nM in assay [3].
The like results for `O=C(NO)C1C2CCCCC2CCN1S(=O)(=O)c1ccc(Oc2ccncc2)cc1` (stereo not drawn) [Example 9, 2-[4-(pyridin-4-yloxy)benzenesulfonyl]decahydroisoquinoline-1-(N-hydroxy)carboxamide trifluoroacetate] were, in that order, 21 nM, 20 nM and 12 nM.
For `COc1ccc(Oc2ccc(S(=O)(=O)N3CCC4CCCCC4C3C(=O)NO)cc2)cc1` (stereo not drawn) [Example 11, 2-[4-(4-methoxyphenoxy)benzenesulfonyl]decahydroisoquinoline-1-(N-hydroxy)carboxamide], the IC50 in assay [1] is 1.5 nM; in assay [2] it was 2 nM; in assay [3], 2 nM.
In the case of `O=C(NO)C1C2CCCCC2CCN1S(=O)(=O)c1ccc(Oc2ccc(OCC(F)(F)F)cc2)cc1` (stereo not drawn) [Example 13, 2-{4-[4-(2,2,2-trifluoroethoxy)phenoxy]benzenesulfonyl}decahydroisoquinoline-1-(N-hydroxy)carboxamide], the IC50 in assay [1] is 2 nM; in assay [2] it was 2.6 nM; in assay [3], 2 nM.
On to `O=C(NO)C1C2CCCCC2CCN1S(=O)(=O)c1ccc(-c2ccc(OC(F)(F)F)cc2)cc1` (stereo not drawn) [Example 19, 2-(4′-trifluoromethoxybiphenyl-4-sulfonyl)decahydroisoquinoline-1-(N-hydroxy)carboxamide], for which the values for the IC50 in assay [1], in assay [2] and in assay [3] were 3 nM, 3 nM and 5 nM, respectively.
In the case of `O=C(NO)C1C2CCCCC2CCN1S(=O)(=O)c1ccc(Oc2ccc(F)cc2)cc1` (stereo not drawn) [Example 20, 2-[4-(4-fluorophenoxy)benzenesulfonyl]decahydroisoquinoline-1-(N-hydroxy)carboxamide], the IC50 in assay [1], in assay [2] and in assay [3] was 2 nM throughout.
As for `O=C(NO)[C@H]1[C@H]2CCCC[C@H]2CCN1S(=O)(=O)c1ccc(Oc2ccc(F)cc2)cc1` [Example 21, 2-[4-(4-fluorophenoxy)benzenesulfonyl]decahydroisoquinoline-1-(N-hydroxy)carboxamide], the IC50 in assay [1] came out at 1.3 nM; in assay [2] it was 1.5 nM; in assay [3], 0.45 nM.
The like results for `O=C(NO)C1C2CCCCC2CCN1S(=O)(=O)c1ccc(Oc2ccc(OC(F)(F)F)cc2)cc1` (stereo not drawn) [Example 23, 2-[4-(4-trifluoromethoxyphenoxy)benzenesulfonyl]decahydroisoquinoline-1-(N-hydroxy)carboxamide] were, in that order, 2.1 nM, 2 nM and 2 nM.
On to `N#Cc1ccc(Oc2ccc(S(=O)(=O)N3CCC4CCCCC4C3C(=O)NO)cc2)cc1` (stereo not drawn) [Example 26, 2-[4-(4-cyanophenoxy)benzenesulfonyl]decahydroisoquinoline-1-(N-hydroxy)carboxamide], for which the results for the IC50 in assay [1], in assay [2] and in assay [3] were 3 nM, 8 nM and 3 nM, respectively.
